Data on 15 molecules can be found in patent publication US12472175B2, “Methods of treating venetoclax-resistant acute myeloid leukemia” (OREGON HEALTH & SCIENCE UNIVERSITY, priority 2019, dated 2025).

Assay [1] relates to MOLM-13 and MV4;11 cells with TP53 and BAX KOs. In words: Small molecule inhibitor panel screen, changes common to modified MOLM-13 and MV4;11 cells. The format is cell-based, Human. The note with it: for sensitivity to NTRK/ALK/ROS1 inhibitors: cells with TP53 KO; for change in drug sensitivity common to modified MOLM-13 and MV4;11 cells: TP53 and BAX KOs relative to non-targeting control; for sensitivity to FLT3 inhibitors: TP53 inactivated MV4;11 and MOLM-13 cells. The procedure:
Small-molecule inhibitors, purchased from LC Laboratories (Woburn, Mass., USA) and Selleck Chemicals (Houston, Tex., USA), were reconstituted in DMSO and stored at −80° C. Inc. Inhibitors were distributed into 384-well plates prepared with a single agent/well in a 7-point concentration series ranging from 10 μM to 0.04 μM for each drug. […] After three days of culture at 37° C. in 5% CO2, MTS reagent (CellTiter96 AQueous One; Promega Madison, Wis., USA) was added, optical density was measured at 490 nm, raw absorbance values were adjusted to a reference blank value, and then used to determine cell viability (normalized to untreated control wells). Prizm software(GraphPad) was used to perform non-linear regression analyses on normalized values for the determination of IC50.
FIG. 7A. MOLM-13 and MV4;11 cells, transduced with indicated sgRNAs/Cas9 viruses, were screened with a panel of inhibitors targeting various molecular pathways and assessed using the cell survival method described in FIG. 2A.
FIG. 7B. Analyses of FLT3 inhibitor sensitivities, in MOLM-13 and MV4;11 parental and Crispr-modified cells, as indicated. Drug sensitivity was measured as described in FIG. 2A, with IC50 measured in triplicate.

Assay [2] deals with MOLM-13 cells. Nature of the assay: Cell viability (MTS) drug sensitivity assay in MOLM-13 cells transduced with sgRNA/Cas9 viruses. Format: cell-based, Human. As to the method:
(§1) Small-molecule inhibitors, purchased from LC Laboratories (Woburn, Mass., USA) and Selleck Chemicals (Houston, Tex., USA), were reconstituted in DMSO and stored at −80° C. Inc. Inhibitors were distributed into 384-well plates prepared with a single agent/well in a 7-point concentration series ranging from 10 μM to 0.04 μM for each drug. The final concentration of DMSO was ≤1.1% in all wells. Cells were seeded into 384-well assay plates at 1,000 cells/well in RPMI-1640 media supplemented with fetal bovine serum (15%), L-glutamine, penicillin-streptomycin and antimycotic. After three days of culture at 37° C. in 5% CO2, MTS reagent (CellTiter96 AQueous One; Promega Madison, Wis., USA) was added, optical density was measured at 490 nm, raw absorbance values were adjusted to a reference blank value, and then used to determine cell viability (normalized to untreated control wells). Prizm software(GraphPad) was used to perform non-linear regression analyses on normalized values for the determination of IC50.
FIG. 2. A. Confirmation of genes conferring venetoclax resistance in MOLM-13 and MV4;11 cells and correlations with changes in apoptotic gene transcription in AML patients. MOLM-13 (FIG. 2A) or MV4;11 (FIG. 2B) cells were transduced with lentiviruses carrying single sgRNA/Cas9 constructs targeting TP53, BAX, PMAIP1, FAU or control (non-targeting; NT_g). 10 days post transduction, venetoclax sensitivity was measured in triplicate by colorimetric MTS assay using a 7-point concentration range (4 nM to 10 μM). Percentages of viable cells, after normalization to untreated controls, were fit using non-linear regression analyses; mean and standard errors are shown. MOLM-13P, parental MOLM-13 cells. MV4;11P, parental MV4;11 cells. FIG. 2C. Histogram (log 2 scale) summarizing changes in venetoclax sensitivity in parental MOLM-13 (black shaded), parental MV4;11 cells (grey shaded) or cells transduced with indicated sgRNA/Cas9 viruses., IC50 values were calculated by non-linear regression analyses in the cell viability assay described in panel A. FIG. 2D. […]

For assay [3], the system named is primary AML patient cells. In words: Ex vivo viability (MTS) drug sensitivity in primary AML patient samples (Beat AML). The format is cell-based. The procedure: as §1
FIG. 3. Venetoclax sensitivity in AML patients inversely correlates with TP53 mutations and low expression of TP53 and BAX. 3A. Venetoclax (VEN) sensitivity in primary AML patient samples was measured in a viability assay across a concentration series ranging from 10 nM to 10 μM. AUC was determined for each sample and plotted relative to TP53 mutant status or TP53 expression levels. LE and HE denote lowest and highest quartile expression values, respectively. […] Within TP53 mutant groups, circles, triangles and square symbols denote loss of function (LOF), gain of function (GOF), and splice variants correspondingly. 3B. Correlation between gene expression levels from AML patient samples for TP53, BAX, PMAIP1 and TMEM14A to the respective venetoclax sensitivities represented by AUC (n=442; [36]). k, slope values generated by linear regression; r, Spearman coefficient; ****, p<0.0001; ns, not significant.
FIG. 12. Selected ex vivo drug sensitivity in AML patients' cells with mutant TP53 mutations. Histogram representing drug sensitivity, measured in primary AML patient cells ex vivo, in a viability MTS assay across a concentration series ranging from 10 nM to 10 μM, using 10,000 cells per well, in triplicates. […] Red bars denote median IC50 value.
(§2) FIG. 13. Analyses of Venetoclax sensitivities in CLL and AML patient cohorts ex vivo. Scatter plot of IC50 values are indicated. Mann-Whitney test was performed on IC50 values to ascertain statistical differences of mean. ***, p<0.001.

The subject of another assay is NTRK. Nature of the assay: Western blot of NTRK and downstream MAPK phosphorylation. Conditions: TP53 KO MOLM-13, entrectinib 100 nM overnight; not in control or parental cells. Format: cell-based, Human. The procedure: Whole cells extracts from MOLM-13 or MV4;11 cells were prepared using 20 mM Tris-HCl (pH 7.5), 150 mM NaCl, 1 mM Na EDTA, 1 mM EGTA, 1% Triton, 2.5 mM sodium pyrophosphate, 1 mM beta-glycerophosphate, 1 mM Na3VO4, 1 μg/ml leupeptin (Cell Signalling), 1 mM PMSF, […] (Roche) and phosphatase inhibitor cocktail (Sigma-Aldrich). Proteins were resolved on 5-15% gradient gels (Biorad), transferred to PVDF membrane (Amersham) and subjected to immunoblotting using primary, followed by corresponding HRP-conjugated secondary antibodies (Promega), or biotinylated secondary antibody followed by streptavidin conjugated to HRP(TRK antibodies).
FIG. 7E. Western blot analyses of proteins extracted from MOLM-13 parental and MOLM-13 transduced with TP53 sgRNA/Cas9 viruses and treated overnight with venetoclax (100 nM), entrectinib (100 nM) or DMSO (vehicle), and identified with antisera to pan NTRK, phosphorylated NTRK, phosphorylated ERK1/2, ERK1/2, phosphorylated AKT, AKT and GAPDH.
On the technique in general: In western blotting, separated proteins are transferred to a membrane and probed.

Assay [4] has as its system MOLM-13 cells. In words: Cell cycle profile by flow cytometry. The format is cell-based, Human. Conditions: TP53 KO cells, 100 nM entrectinib o/n. As to the method: FIG. 11. Entrectinib arrests cells with loss-of-function alleles for TP53 in G1. (FIG. 11A). Flow cytometry analyses of cells treated with 100 nM entrectinib o/n or vehicle alone. (FIG. 11B). Histogram representing cell cycle profiles of MOLM-13 cells transduced with sgRNAs/Cas9 viruses for non-targeting sgRNA (NT_g, n=3), TP53 sgRNA (TP53_g, n=3) or BAX (n=1); mean and standard deviation are shown where appropriate. (FIG. 11C). Cell viability assay assessing the sensitivity of the combination of entrectinib and venetoclax relative to sensitivities for each single agent on MOLM-13 cells transduced with sgRNAs/Cas9 viruses for TP53 sgRNA. Data were fit to a non-linear regression analysis with means and standard errors.

A further assay concerns CLL patient specimens. In words: Ex vivo venetoclax sensitivity in CLL patient cohort. Format: cell-based. As to the method: as §1, §2
Assay [5] concerns MOLM-13 cells. In words: Mitochondrial membrane potential (JC-1). The format is cell-based, Human. Conditions: TP53 and BAX mutant cells, CCCP alone. The procedure:
Membrane depolarization was induced with CCCP. Cells were treated with 100 nM venetoclax or DMSO and with or without CCCP for 2 hrs prior to addition of the dye and flow cytometry.
FIG. 5. […] Histogram of a representative mitophagy experiment (n=2). […] FIG. 5B. […] FIGS. 5C, 5D. […] FIG. 5E. […] FIG. 5F. Cell viability assay in response to elesclomol.

The test system of assay [6] is MOLM-13 cells. Conditions: cells with inactivation of TP53 and BAX, regardless of venetoclax treatment.
Description: Cells were loaded in complete medium with 100 nM mitophagy Dye (Mitophagy Detection Kit, Dojindo Molecular Technologies) and 25 nM MitoTracker Deep Red, incubated for 30 min at 37° C. with serum free RPMI, washed and treated with DMSO or 100 nM venetoclax in DMSO for 2 hrs. […] Cells were washed, loaded with lyso dye for 30 min and observed for fluorescence. Mitophagy was detected as intense fluorescence of mitodye upon fusion with lysosomes, detected with lyso dye (488 nm(Ex), 550 nm(Em). 10,000 cells were collected for analysis using a BD FACS Arian™III on 10,000 acquired events. The data were analyzed post acquisition using FlowJo software (Tree Star, Ashland, Oreg., USA). 10,000 cells were acquired using channels 405-2-A(lyso dye), 561-3-A(Mitophagy dye) and 640-1-A(MitoTracker Dye).
Histogram of a representative mitophagy experiment (n=2). […] Histogram of a representative experiment from C (n=2) with 10,000 cells analyzed per sample.
The mark [7] stands for this setting: sensitivity printed as IC50≥0.5 μM.

For `Cc1cc(Nc2nc(N[C@@H](C)c3ncc(F)cn3)ncc2Cl)n[nH]1` [AZD1480], the “sensitivity to NTRK/ALK/ROS1 inhibitors” value in assay [1] was “sustained gain of sensitivity”. Consider `Cc1c2c(nn1C)CSCc1cc(n(C)n1)CSc1cc(c3ccccc3c1)OCCCc1c(C(=O)O)n(C)c3c-2c(Cl)ccc13` [AZD5991], for which the “sensitivity to MCL1 inhibitor, TP53 KO” value in the assay with MOLM-13 cells [2] (TP53 KO MOLM13 cells) is on record as “significantly diminished”. For `CS(=O)(=O)N1CCN(Cc2cc3nc(-c4cccc5[nH]ncc45)nc(N4CCOCC4)c3s2)CC1` [GDC-0941], the “change in drug sensitivity common to modified MOLM-13 and MV4;11 cells” value (“change in drug sensitivity common” for short) in assay [1] is given as “increased”. With `COc1ccc(COc2ccc(Cc3cnc(N)nc3N)cc2OC)cc1` [GW-2580], in assay [1], the “sensitivity to NTRK/ALK/ROS1 inhibitors” value is “sustained gain of sensitivity”. On to `O=S(=O)(NCCNC/C=C/c1ccc(Br)cc1)c1cccc2cnccc12` [H-89], for which the “change in sensitivity between BAX-inactivated MV4;11 and MOLM-13 cells” value in assay [1] (BAX-inactivated, also overlapped in TP53 inactivated cells) was “concordant changes”. For `Oc1cccc(-c2nc(N3CCOCC3)c3oc4ncccc4c3n2)c1` [PI-103], in assay [1], the “change in drug sensitivity common” value is listed as “increased”.

With `COCCn1c2c([n+](Cc3cnccn3)c1C)C(=O)c1ccccc1C2=O` [YM-155], the “change in drug sensitivity common” value in assay [1] is listed as “increased”. As to `CC1(COc2ccc3c(c2)ncn3-c2ccc3cccc(N4CCC(N)CC4)c3n2)COC1` [crenolanib], in assay [1], the “sensitivity to FLT3 inhibitors” value is given as “loss of sensitivity”. For the molecule `C[C@@H](Oc1cc(-c2cnn(C3CCNCC3)c2)cnc1N)c1c(Cl)ccc(F)c1Cl` [crizotinib], the “sensitivity to NTRK/ALK/ROS1 inhibitors” value in assay [1] is listed as “sustained gain of sensitivity”. `CN(NC(=O)CC(=O)NN(C)C(=S)c1ccccc1)C(=S)c1ccccc1` [elesclomol]: the “cell viability in response to elesclomol” value in the assay with MOLM-13 cells [2] (TP53 and BAX KO cells) is reported as “still susceptible to cell death”.

Regarding `CN1CCN(c2ccc(C(=O)Nc3n[nH]c4ccc(Cc5cc(F)cc(F)c5)cc34)c(NC3CCOCC3)c2)CC1` [entrectinib], the “sensitivity to NTRK/ALK/ROS1 inhibitors” value in assay [1] is given as “sustained gain of sensitivity”. Moreover, the “ex vivo drug sensitivity in AML patient cells with TP53 mutations” value in assay [3] (several patient specimens, 10 nM to 10 μM) was “relatively high sensitivity”. For the same molecule, the “phosphorylation of NTRK and downstream MAPK signaling” value in the assay on NTRK was “significant decreases in phosphorylation”. The cell cycle effect result with MOLM-13 cells [4] is reported as “G1 cell cycle blockade”. As for `O=C(Nc1cnn2ccc(N3CCC[C@@H]3c3cc(F)ccc3F)nc12)N1CC[C@H](O)C1` [larotrectinib], in the assay on MOLM-13 cells [2] (TP53 KO), the “sensitivity to selective NTRK inhibitor” value is “profound gain of sensitivity”.

With `CNC(=O)c1cc(Oc2ccc(NC(=O)Nc3ccc(Cl)c(C(F)(F)F)c3)cc2)ccn1` [sorafenib], in assay [1], the “sensitivity to FLT3 inhibitors” value is on record as “loss of sensitivity”. Take `CC1(C)CCC(CN2CCN(c3ccc(C(=O)NS(=O)(=O)c4ccc(NCC5CCOCC5)c([N+](=O)[O-])c4)c(Oc4cnc5[nH]ccc5c4)c3)CC2)=C(c2ccc(Cl)cc2)C1` [venetoclax]: the IC50 in assay [3] (Homo sapiens, AML, 289 patients, read-out: Median IC50, venetoclax sensitivity ex vivo, AML cohort) turned out to be 100 nM; in the assay on CLL patient specimens (Homo sapiens, CLL, 141 patients, read-out: Median IC50, venetoclax sensitivity ex vivo, CLL cohort), 1400 nM. Further, the “median IC50 for AML relative to that for CLL” value in assay [3] (ex vivo patient samples, Beat AML cohort) was 14 times. Moreover, the “share of AML specimens exhibiting sensitivity to venetoclax” value in assay [3] (setting [7]) is recorded as “about 40%”. In the assay with CLL patient specimens (setting [7]), the “share of CLL specimens exhibiting sensitivity to venetoclax” value is ~55%. As to “carboyl cyanide m-chlorophenyl hydrazine [CCCP]”, the “loss of mitochondrial membrane potential in response to uncoupler” value in the assay on MOLM-13 cells [5] is reported as “less likely to lose mitochondrial membrane potential”. Moreover, the “mitophagy in response to mitochondrial uncoupler” value in the assay on MOLM-13 cells [6] is on record as “less likely to undergo mitophagy or mitochondrial death”.

By IC50 is commonly meant the concentration that inhibits the measured activity by half.
